Patent publication US9676773B2, “Azaindole derivative” (TAIHO PHARMACEUTICAL CO., LTD., priority 2014, dated 2017)

Columns and labels:
[1] = biological target: T1, purified recombinant human JAK2 protein (Homo sapiens, UniProt O60674); experiment: Measurement of JAK2 kinase-inhibitory activity; assay type: biochemical; details: FL-Peptide 22 1 μM, ATP 10 μM, 25° C., 80 minutes
T1 construct: purchased Carna Biosciences, Inc
Protocol: 2) Measurement of JAK2 Kinase-Inhibitory Activity
The activity of the compound of the present invention to inhibit the activity of JAK2 kinase was measured.
(§1) Among materials for the measurement of this inhibitory activity, a substrate peptide and a kinase protein were acquired as follows. As such a substrate peptide, FL-Peptide 22 (Perkin Elmer Corp.) was purchased. As such a kinase protein, a purified recombinant human JAK2 protein (Carna Biosciences, Inc.) was purchased.
(§2) The method for measuring the inhibitory activity is as follows. First, a serial dilution of the compound of the present invention was prepared by the same method as that described in the above section regarding JAK1. This serial dilution solution (the final concentration of DMSO upon a kinase reaction: 5.0%) or DMSO (final concentration: 5.0%) was mixed with a solution containing the substrate peptide (final concentration: 1 μM), magnesium chloride (final concentration: 10 mM) and ATP (final concentration: 10 μM) in a buffer for kinase reaction (15 mM Tris (pH 7.5), 2 mM dithiothreitol and 0.01% Tween 20). Thereafter, a JAK2 protein was further added to the mixed solution, and the obtained mixture was then incubated at 25° C. for 80 minutes to carry out a kinase reaction. To the reaction solution, EDTA was added to a final concentration of 30 mM, so as to terminate the reaction. After termination of the reaction, the measurement and the data analysis were carried out by the same methods as those described in the above section regarding JAK1.

[2] = biological target: T2, purified recombinant human JAK3 protein (Homo sapiens, UniProt P52333); experiment: Measurement of JAK3 kinase-inhibitory activity; assay type: biochemical; details: substrate peptide 1 μM, ATP 5 μM, 25° C., 80 minutes
T2 construct: purchased Carna Biosciences, Inc
T2 sequence (P52333 1-1124): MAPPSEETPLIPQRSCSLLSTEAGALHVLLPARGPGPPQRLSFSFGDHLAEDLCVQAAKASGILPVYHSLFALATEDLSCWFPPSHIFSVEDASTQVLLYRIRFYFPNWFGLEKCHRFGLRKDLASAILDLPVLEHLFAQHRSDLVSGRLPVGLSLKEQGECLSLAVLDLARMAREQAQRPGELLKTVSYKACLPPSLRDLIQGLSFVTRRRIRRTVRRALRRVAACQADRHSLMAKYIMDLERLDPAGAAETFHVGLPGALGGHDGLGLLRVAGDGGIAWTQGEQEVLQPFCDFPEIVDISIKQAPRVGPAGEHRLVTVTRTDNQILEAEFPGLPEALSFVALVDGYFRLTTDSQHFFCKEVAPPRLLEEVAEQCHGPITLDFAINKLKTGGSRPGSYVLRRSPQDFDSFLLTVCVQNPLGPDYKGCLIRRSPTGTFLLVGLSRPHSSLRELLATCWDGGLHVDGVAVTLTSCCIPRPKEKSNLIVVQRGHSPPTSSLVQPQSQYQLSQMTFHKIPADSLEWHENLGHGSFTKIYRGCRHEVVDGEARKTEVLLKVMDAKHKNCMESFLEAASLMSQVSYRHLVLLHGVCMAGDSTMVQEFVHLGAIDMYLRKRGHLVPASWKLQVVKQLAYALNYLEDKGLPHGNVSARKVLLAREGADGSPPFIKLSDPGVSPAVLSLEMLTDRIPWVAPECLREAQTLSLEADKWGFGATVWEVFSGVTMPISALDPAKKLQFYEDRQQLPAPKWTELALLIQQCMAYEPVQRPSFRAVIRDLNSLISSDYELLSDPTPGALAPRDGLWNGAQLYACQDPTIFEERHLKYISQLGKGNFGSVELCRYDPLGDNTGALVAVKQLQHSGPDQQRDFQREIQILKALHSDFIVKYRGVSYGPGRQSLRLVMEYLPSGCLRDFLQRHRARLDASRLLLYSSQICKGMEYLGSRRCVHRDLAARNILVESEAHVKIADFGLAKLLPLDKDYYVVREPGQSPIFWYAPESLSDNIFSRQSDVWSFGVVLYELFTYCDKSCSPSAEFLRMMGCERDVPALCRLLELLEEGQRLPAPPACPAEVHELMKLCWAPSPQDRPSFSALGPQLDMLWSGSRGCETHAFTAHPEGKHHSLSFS
Protocol: 3) Measurement of JAK3 Kinase-Inhibitory Activity
The activity of the compound of the present invention to inhibit the activity of JAK3 kinase was measured.
as §1, with “a substrate peptide for QSS Assist™ JAK3-MSA assay kit (Carna Biosciences, Inc.)” for “FL-Peptide 22 (Perkin Elmer Corp.)”, “JAK3” for “JAK2”
as §2, with “5” for “10”, “(20” for “(15”, “HEPES” for “Tris”, “Triton X-100).” for “Tween 20).”, “JAK3” for “JAK2”

T1 sequence (O60674 whole entry): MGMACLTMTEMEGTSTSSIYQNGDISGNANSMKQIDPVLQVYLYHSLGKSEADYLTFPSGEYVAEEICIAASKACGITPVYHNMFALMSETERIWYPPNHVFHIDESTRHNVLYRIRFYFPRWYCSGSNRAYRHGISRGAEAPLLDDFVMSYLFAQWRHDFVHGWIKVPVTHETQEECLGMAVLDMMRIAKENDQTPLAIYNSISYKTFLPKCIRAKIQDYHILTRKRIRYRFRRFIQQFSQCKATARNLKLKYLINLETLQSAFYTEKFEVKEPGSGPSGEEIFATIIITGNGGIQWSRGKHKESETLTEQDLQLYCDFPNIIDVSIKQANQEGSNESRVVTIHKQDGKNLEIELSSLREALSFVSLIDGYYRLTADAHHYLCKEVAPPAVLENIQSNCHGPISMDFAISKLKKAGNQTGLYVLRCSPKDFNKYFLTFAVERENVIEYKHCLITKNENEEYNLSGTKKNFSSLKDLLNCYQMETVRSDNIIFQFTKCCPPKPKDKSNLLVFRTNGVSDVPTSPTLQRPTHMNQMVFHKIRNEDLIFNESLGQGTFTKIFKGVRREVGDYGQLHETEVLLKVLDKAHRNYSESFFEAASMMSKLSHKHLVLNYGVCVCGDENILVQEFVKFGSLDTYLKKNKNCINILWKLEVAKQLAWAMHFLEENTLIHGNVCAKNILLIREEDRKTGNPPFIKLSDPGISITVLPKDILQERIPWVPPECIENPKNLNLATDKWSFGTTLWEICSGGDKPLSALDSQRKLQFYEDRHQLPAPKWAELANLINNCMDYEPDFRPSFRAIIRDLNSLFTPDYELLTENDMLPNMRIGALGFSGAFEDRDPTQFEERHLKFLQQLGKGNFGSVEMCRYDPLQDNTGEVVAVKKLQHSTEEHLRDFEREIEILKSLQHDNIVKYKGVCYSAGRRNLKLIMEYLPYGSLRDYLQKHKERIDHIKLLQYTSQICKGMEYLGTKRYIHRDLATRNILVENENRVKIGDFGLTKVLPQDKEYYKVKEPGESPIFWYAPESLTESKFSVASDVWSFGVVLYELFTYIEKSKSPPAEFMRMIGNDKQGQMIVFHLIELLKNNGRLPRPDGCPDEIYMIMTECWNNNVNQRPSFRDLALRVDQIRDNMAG

Row | SMILES | IC50 [1] | IC50 [2]
1 | C1=C(c2ccnc3[nH]ccc23)CCCC1 [Comparative Example 1, reference compound] | 450 nM | 250 nM
2 | C1=C(c2ccnc3[nH]ccc23)CCC1 [Comparative Example 2, 4-(Cyclopent-1-en-1-yl)-1H-pyrrolo[2,3-b]pyridine, reference compound] | 540 nM | 350 nM
3 | Cc1nc(-c2c[nH]c3ncc(-c4ccccc4)cc23)cs1 [Comparative Example 3, 2-Methyl-4-(5-phenyl-1H-pyrrolo[2,3-b]pyridin-3-yl)thiazole, reference compound] | 1600 nM | 460 nM
4 | C=CC(=O)NC1CCC=C(c2ccnc3[nH]cc(-c4ccccc4)c23)C1 (stereo not drawn) [Compound 1, N-(3-(3-Phenyl-1H-pyrrolo[2,3-b]pyridin-4-yl)cyclohex-3-en-1-yl)acrylamide] | 450 nM | < 0.3 nM
5 | C=CC(=O)NC1CCC=C(c2ccnc3[nH]cc(-c4cn[nH]c4)c23)C1 (stereo not drawn) [Compound 3, N-(3-(3-(1H-Pyrazol-4-yl)-1H-pyrrolo[2,3-b]pyridin-4-yl)cyclohex-3-en-1-yl)acrylamide] | 570 nM | < 0.3 nM
6 | C=CC(=O)NC1CCC=C(c2ccnc3[nH]cc(-c4cccnc4OC)c23)C1 (stereo not drawn) [Compound 6, N-(3-(3-(2-Methoxypyridin-3-yl)-1H-pyrrolo[2,3-b]pyridin-4-yl)cyclohex-3-en-1-yl)acrylamide] | 600 nM | 0.42 nM
7 | C=CC(=O)NC1CCC=C(c2ccnc3[nH]cc(-c4ccc(CO)o4)c23)C1 (stereo not drawn) [Compound 10, N-(3-(3-(5-(Hydroxymethyl)furan-2-yl)-1H-pyrrolo[2,3-b]pyridin-4-yl)cyclohex-3-en-1-yl)acrylamide] | 250 nM | < 0.3 nM
8 | C=CC(=O)NC1CCC=C(c2ccnc3[nH]cc(-c4ccco4)c23)C1 (stereo not drawn) [Compound 12, N-(3-(3-(Furan-2-yl)-1H-pyrrolo[2,3-b]pyridin-4-yl)cyclohex-3-en-1-yl)acrylamide] | 500 nM | < 0.3 nM
9 | C=CC(=O)NC1CCC=C(c2ccnc3[nH]cc(-c4cc(CO)co4)c23)C1 (stereo not drawn) [Compound 14, N-(3-(3-(4-(Hydroxymethyl)furan-2-yl)-1H-pyrrolo[2,3-b]pyridin-4-yl)cyclohex-3-en-1-yl)acrylamide] | 590 nM | < 0.3 nM
10 | C=CC(=O)NC1CCC=C(c2ccnc3[nH]cc(C4=CCOC4)c23)C1 (stereo not drawn) [Compound 34, N-(3-(3-(2,5-Dihydrofuran-3-yl)-1H-pyrrolo[2,3-b]pyridin-4-yl)cyclohex-3-en-1-yl)acrylamide] | 970 nM | < 0.3 nM
11 | C=CC(=O)NC1CCC=C(c2ccnc3[nH]cc(-c4ccc(F)nc4)c23)C1 (stereo not drawn) [Compound 37, N-(3-(3-(6-Fluoropyridin-3-yl)-1H-pyrrolo[2,3-b]pyridin-4-yl)cyclohex-3-en-1-yl)acrylamide] | 2400 nM | < 0.3 nM
12 | C=CC(=O)NC1CCC=C(c2ccnc3[nH]cc(-c4cnco4)c23)C1 (stereo not drawn) [Compound 48, N-(3-(3-(Oxazol-5-yl)-1H-pyrrolo[2,3-b]pyridin-4-yl)cyclohex-3-en-1-yl)acrylamide] | 710 nM | < 0.3 nM
13 | C=CC(=O)NC1CCC=C(c2ccnc3[nH]cc(-c4nnco4)c23)C1 (stereo not drawn) [Compound 49, N-(3-(3-(1,3,4-Oxadiazol-2-yl)-1H-pyrrolo[2,3-b]pyridin-4-yl)cyclohex-3-en-1-yl)acrylamide] | 980 nM | < 0.3 nM
14 | C=CC(=O)NC1CCC=C(c2ccnc3[nH]cc(-c4nn(C)c(=O)o4)c23)C1 (stereo not drawn) [Compound 53, N-(3-(3-(4-Methyl-5-oxo-4,5-dihydro-1,3,4-oxadiazol-2-yl)-1H-pyrrolo[2,3-b]pyridin-4-yl)cyclohex-3-en-1-yl)acrylamide] | 990 nM | < 0.3 nM
15 | C=CC(=O)NC1CCC=C(c2ccnc3[nH]cc(-c4nncs4)c23)C1 (stereo not drawn) [Compound 54] | 2100 nM | 0.45 nM
16 | C=CC(=O)N[C@H]1CCC=C(c2ccnc3[nH]cc(-c4nnco4)c23)C1 [Compound 55, (S)—N-(3-(3-(1,3,4-Oxadiazol-2-yl)-1H-pyrrolo[2,3-b]pyridin-4-yl)cyclohex-3-en-1-yl)acrylamide] | 260 nM | < 0.3 nM
17 | C=CC(=O)NC1CC=C(c2ccnc3[nH]cc(-c4nnco4)c23)C1 (stereo not drawn) [Compound 57, N-(3-(3-(1,3,4-Oxadiazol-2-yl)-1H-pyrrolo[2,3-b]pyridin-4-yl)cyclopent-3-en-1-yl)acrylamide] | 880 nM | 0.57 nM
18 | C=CC(=O)N[C@H]1CCC=C(c2ccnc3[nH]cc(-c4ccno4)c23)C1 [Compound 59] | 430 nM | < 0.3 nM
